Results taken from patent US5817689A, “Indole derivatives having a 2-phenyl-ethanolamino-substituted lower alkyl group at the 2-or 3-position thereof” (priority 1994, dated 1998).
Structures can show the parent of a compound that is named as a salt. Where two headings read alike, the source gives them in different places.

Legend:
[1] = tested on: Central nervous system; conditions: literature compound; cited from earlier work
[2] = tested on: bacteria; conditions: literature compound; cited from earlier work
[3] = molecular target: T1, human β3 -adrenergic receptor (Homo sapiens, UniProt P13945); test: Human β3-adrenergic receptor-stimulating activity (cAMP accumulation in CHO/pKREX10-36 cells); type: cell-based; conditions: for Emax: read-out: I.A. value β3 -receptor; for stimulating activity of human β3 -adrenergic receptor (in words): conclusion from Table 5; for Ratio of EC50 β2 /β3: ratio of EC50 β2-receptor to EC50 β3-receptor
T1 construct: expressed in transfected cells; host or cells: CHO-K1 (ATCC CCL 61), clone CHO/pKREX10-36
Description: Establishment of the cell line highly expressing human β3 -adrenergic receptor
Separately, another expression vector for animal cells, pSV2-neo [Southern and Berg, J. Mol. Appl. Genet. […] These DNAs were ligated with DNA Ligation Kit (Takara Shuzo Co., Ltd.) and were introduced into E. coli HB101 in a conventional manner to give the transformants. Plasmid DNAs were prepared from the transformants and digested with a restriction endonuclease PstI. A clone which produced about 3.8 kbp, 2.2 kbp, 1.4 kbp, and 0.9 kbp fragments was selected to give a plasmid named pKCN0.
The reaction mixture was used for transformation of E. coli HB101 and plasmid DNAs were prepared from the selected transformants. The plasmid DNAs were digested with restriction endonucleases DraI and HindIII, and a clone which produced about 430 bp fragment was selected to give a plasmid named pKCN1 for expression vector.
10% Dimethyl sulfoxide was added to the reaction mixture at the PCR reaction.
After the reaction mixture was digested with restriction endonucleases Sse8387I and StuI, about 1.3 kbp fragment was isolated by electrophoresis. This fragment was ligated with expression vector pKCN1 which was digested with restriction endonucleases Sse8387I and EcoRV, and the resultant was introduced into E. coli HB101 in a conventional manner. Plasmid DNA was prepared from the selected transformant and the nucleotide sequence of the about 1.3 kbp fragment obtained by digestion of the plasmid DNA with restriction endonucleases Sse8387I and XhoI was determined. […] This plasmid for expressing human β3 -adrenergic receptor was named as pKREX10.
The reaction mixture was filtered with glass filter GF/C (Whatman) presoaked with 0.3% polyethyleneimine and washed by using BIO-DOT apparatus (Bio-Rad Laboratories), and the radioactivity on the filter was counted by γ-ray counter. […] Establishment of the cell line highly expressing human β2 -adrenergic receptor
(§1) Experiment 1 Human β-adrenergic receptor-stimulating activity:
(§2) The cells were peeled off by incubation with phosphate-buffered saline containing 0.5 mM EDTA at 37° C. for 10 minutes after the medium was removed. The CHO/pKREX10-36 cells were collected by centrifugation, and suspended in Hanks' balanced salts (ICN Biomedicals) containing 1 mM L-ascorbic acid and 1 mM 3-isobutyl-1-methylxanthine at the concentration of about 2×10^6cells/ml. This suspension (100μl) and a test compound were mixed in the same balanced salt (500 μl) and incubated at 37° C. for 30 minutes, followed by boiling for 5 minutes to terminate the reaction. After centrifugation of the reaction mixture, the amount of cAMP in the supernatant was measured by using cAMP EIA System (Amersham).

[4] = molecular target: T2, human β2 -adrenergic receptor (Homo sapiens, UniProt P07550); test: Human β2-adrenergic receptor-stimulating activity (cAMP accumulation in CHO/pKREX21-8 cells); type: cell-based; conditions: for Emax: read-out: I.A. value β2 -receptor; for I.A. value β2 -receptor: intrinsic activity: maximal cAMP response relative to 10^-5 M (-)-isoproterenol = 100%
T2 construct: expressed in transfected cells; host or cells: CHO-K1, clone CHO/pKREX21-8
From the text: cDNA was synthesized with Poly(A)^+ RNA derived from human brain (Clontech: trade number; CL6516-1) by using SuperScript Systems (Life Technologies).
After the reaction mixture was digested with restriction endonucleases Sse8387I and HindIII, about 1.4 kbp fragment was isolated by electrophoresis. This fragment was ligated with expression vector pKCN1 digested with restriction endonucleases Sse8387I and HindIII, and was introduced into E. coli HB101 in a conventional manner. Plasmid DNA was prepared from the selected transformant, and the nucleotide sequence of the about 1.4 kbp fragment obtained by digestion of this plasmid DNA with restriction endonucleases Sse8387I and HindIII was determined. […] This plasmid was named as pKREX21 for highly expressing human β2 -adrenergic receptor, and was introduced into CHO-K1 in the same manner as the method of establishment of the cell line highly expressing human β3 -adrenergic receptor.
as §1, §2
Similarly, the amount of cAMP was measured by using CHO/pKREX21-8 for highly expressing human β2 -adrenergic receptor instead of the CHO/pKREX10-36 for highly expressing human β3 -adrenergic receptor.

[5] = tested on: glucose level in the blood; test: Blood glucose reducing activity on fasted mouse; type: in vivo, ddY male mouse; conditions: 3 h, read-out: Blood glucose reducing activity (ED25)
Description: Experiment 2 Blood glucose reducing activity on fasted mouse:
A test compound suspended in 0.5% tragacanth solution was orally administered to a ddY male mouse (weight: 20-30 g) under being fasted, and the blood was collected before and at three hours after the administration of the test compound. The glucose level in the blood was determined by the method of Kunst A., et al. (Hexokinase/G6PDH method) [Bergmeyer, H. U. (eds.), […], vol. VI, 3rd edition, Verlag Chemie GmbH, Weinheim·Deerfield Beach, Florida·Basel, 163-172 (1984)]. The blood glucose reducing activity of the test compound was expressed by ED25 value which is a concentration of the test compound required to reduce the glucose level in blood before the administration of the test compound by 25%. Gliclazide was used as a reference compound which is a commercially available drug for treatment of diabetes mellitus.

[6] = tested on: retroperitoneal (white) and interscapular (brown) adipose tissue; test: Anti-obesity activity on diabetic obese mouse; type: in vivo, diabetic obese mouse (KK-Ay/Ta, Jcl. female); conditions: 3 mg/kg/day oral for three weeks, significantly different from control, p < 0.01
Description: Experiment 3 Anti-obesity activity on diabetic obese mouse:
A test compound suspended in 0.5% tragacanth solution was orally administrated to a diabetic obese mouse (KK-Ay/Ta, Jcl. female; 50-60 g, Clea Japan Inc.) at a dose of 3 mg/kg/day for three weeks, and then, the retroperitoneal adipose tissue and the interscapulal adipose tissue were taken, and the weights thereof were measured as white adipose tissue and brown adipose tissue, respectively.

[7] = 50% of cAMP accumulation, CHO/pKREX10-36, 37° C., 30 minutes, read-out: EC50 value β3 -receptor
[8] = 25% reduction of blood glucose, fasted ddY male mice, oral, three hours after administration

T1 sequence (P13945 whole entry): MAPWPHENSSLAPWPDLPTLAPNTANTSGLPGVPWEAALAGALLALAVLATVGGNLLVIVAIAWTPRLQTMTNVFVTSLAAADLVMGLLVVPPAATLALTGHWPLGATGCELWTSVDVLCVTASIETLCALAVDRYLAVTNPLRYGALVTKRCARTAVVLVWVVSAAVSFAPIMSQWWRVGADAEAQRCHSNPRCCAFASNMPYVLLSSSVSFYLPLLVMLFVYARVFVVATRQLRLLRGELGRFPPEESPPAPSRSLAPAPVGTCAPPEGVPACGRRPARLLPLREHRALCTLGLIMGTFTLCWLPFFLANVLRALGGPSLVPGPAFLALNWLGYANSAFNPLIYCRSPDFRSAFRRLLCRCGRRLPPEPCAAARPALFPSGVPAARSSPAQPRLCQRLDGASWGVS
T2 sequence (P07550 whole entry): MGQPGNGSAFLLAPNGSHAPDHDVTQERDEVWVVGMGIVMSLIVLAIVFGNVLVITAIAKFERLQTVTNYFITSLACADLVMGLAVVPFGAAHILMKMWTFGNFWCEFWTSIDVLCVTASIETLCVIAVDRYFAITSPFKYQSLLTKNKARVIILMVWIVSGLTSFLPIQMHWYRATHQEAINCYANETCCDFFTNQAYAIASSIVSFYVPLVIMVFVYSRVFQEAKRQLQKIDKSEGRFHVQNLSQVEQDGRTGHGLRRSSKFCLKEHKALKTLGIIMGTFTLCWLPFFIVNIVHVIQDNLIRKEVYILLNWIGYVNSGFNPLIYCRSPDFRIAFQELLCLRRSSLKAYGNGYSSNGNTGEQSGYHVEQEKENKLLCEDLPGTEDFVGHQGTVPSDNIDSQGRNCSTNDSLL

| SMILES | EC50 [3] | Emax [3] | EC50 [4] | Emax [4] | EC50 [3, 7] | ED25 ([5]; po) | further results |
| --- | --- | --- | --- | --- | --- | --- | --- |
| CC(Cc1c[nH]c2ccccc12)NCC(O)c1ccc(O)c(O)c1 (centres unmarked) | – | – | – | – | – | – | Pharmacological Activity (central nervous system) [1]: Central nervous system inhibitory |
| COc1ccc(C(O)CNCCc2c[nH]c3ccccc23)cc1Br (centres unmarked) | – | – | – | – | – | – | Pharmacological Activity (antibacterial) [2]: Antibacterial activity |
| COc1cccc2c(CC(C)NC[C@H](O)c3cccc(Cl)c3)c[nH]c12 (single isomer, unassigned) [Example 1-A-b, 2-[(2S or 2R)-3-(7-methoxyindol-3-yl)-2-propylamino]-(1R)-1-(3-chlorophenyl)ethanol] | 0.36 nM | 89% | 3.6 nM | 35% | – | – | – |
| OC(CNCCc1c[nH]c2ccc(Cl)cc12)c1ccccc1 (centres unmarked) [Compound A, reference compound] | – | 92% | – | 16% | 910 nM | – | stimulating activity of human β3 -adrenergic receptor (in words) [3]: quite weak human β3 -adrenergic receptor-stimulating activity; Ratio of EC50 β2 /β3 [3]: 0.5; EC50 ([4]; 50% of cAMP accumulation, CHO/pKREX21-8, 37° C., 30 minutes, read-out: EC50 value β2 -receptor): 410 nM |
| OC(CNCCc1c[nH]c2ccccc12)c1ccccc1 (centres unmarked) [Compound B, reference compound] | – | 100% | – | – | 180 nM | – | stimulating activity of human β3 -adrenergic receptor (in words) [3]: quite weak human β3 -adrenergic receptor-stimulating activity; I.A. value β2 -receptor [4]: 8% |
| O=[N+]([O-])c1cccc(C(O)CNCCc2c[nH]c3ccccc23)c1 (centres unmarked) [Compound C, reference compound] | – | 105% | – | – | 540 nM | – | stimulating activity of human β3 -adrenergic receptor (in words) [3]: quite weak human β3 -adrenergic receptor-stimulating activity; I.A. value β2 -receptor [4]: 5% |
| COc1cccc2c(CC(C)NCC(O)c3cccc(Cl)c3)c[nH]c12 (centres unmarked) [Example 1, 2-[3-(7-methoxyindol-3-yl)-2-propylamino]-1-(3-chlorophenyl)ethanol] | – | 113% | 25 nM | 33% | 1.7 nM | 0.05 mg/kg | Weight of brown adipose tissue ([6]; control 0.460 ± 0.03): 0.289 ± 0.04 g; Weight of white adipose tissue ([6]; control 4.92 ± 0.28): 2.35 ± 0.12 g |
| CCOc1cccc2c(CC(C)NCC(O)c3cccc(Cl)c3)c[nH]c12 (centres unmarked) [Example 2, 2-[3-(7-ethoxyindol-3-yl)-2-propylamino]-1-(3-chlorophenyl)ethanol] | 2 nM | 117% | 55 nM | 31% | – | 0.03 mg/kg | stimulating activity of human β3 -adrenergic receptor (in words) [3]: potent stimulating activity of human β3 -adrenergic receptor |
| CCOc1cccc2c(CC(C)NC[C@H](O)c3cccc(Cl)c3)c[nH]c12 (stereo partly drawn) [Example 2-A, 2-[3-(7-ethoxyindol-3-yl)-2-propylamino]-(1R)-1-(3-chlorophenyl)ethanol] | – | 96% | 15 nM | 23% | 0.96 nM | – | – |
| COc1ccc2c(CC(C)NCC(O)c3cccc(Cl)c3)c[nH]c2c1 (centres unmarked) [Example 3] | – | 102% | 170 nM | 22% | 22 nM | 3.3 mg/kg | – |
| CC(Cc1c[nH]c2c(OCc3ccccc3)cccc12)NCC(O)c1cccc(Cl)c1 (centres unmarked) [Example 4] | 16 nM | 116% | 43 nM | 36% | – | – | Ratio of EC50 β2 /β3 [3]: 2.7 |
| Cc1ccc2c(CC(C)NCC(O)c3cccc(Cl)c3)c[nH]c2c1 (centres unmarked) [Example 5] | – | 95% | 33 nM | 41% | 12 nM | 4.5 mg/kg | – |
| Cc1cccc2c(CC(C)NCC(O)c3cccc(Cl)c3)c[nH]c12 (centres unmarked) [Example 6] | 35 nM | 91% | 88 nM | 19% | – | 4.5 mg/kg | Ratio of EC50 β2 /β3 [3]: 2.5 |
| COC(=O)COc1ccc2c(CC(C)NCC(O)c3cccc(Cl)c3)c[nH]c2c1 (centres unmarked) [Example 7] | 25 nM | 76% | 33 nM | 15% | – | 1.5 mg/kg | Ratio of EC50 β2 /β3 [3]: 1.3 |
| COC(=O)c1ccc2c(CC(C)NCC(O)c3cccc(Cl)c3)c[nH]c2c1 (centres unmarked) [Example 8] | 31 nM | 92% | – | – | – | 1.4 mg/kg | I.A. value β2 -receptor [4]: 5% |
| Cc1cccc2[nH]cc(CC(C)NCC(O)c3cccc(Cl)c3)c12 (centres unmarked) [Example 10] | – | – | – | – | – | – | ED25 [5, 8]: 0.1 mg/kg |
| COc1ccc2c(CC(C)NCC(O)c3cccc(Cl)c3)c[nH]c2c1OC (centres unmarked) [Example 12] | 4 nM | 98% | 31 nM | 13% | – | – | Ratio of EC50 β2 /β3 [3]: 7.8 |
| CC(Cc1c[nH]c2cc(OCC(=O)O)ccc12)NCC(O)c1cccc(Cl)c1 (centres unmarked) [Example 13, 2-[3-(6-carboxymethoxyindol-3-yl)-2-propylamino]-1-(3-chlorophenyl)ethanolsodium salt] | 31 nM | 101% | – | – | – | – | I.A. value β2 -receptor [4]: 6% |
| COC(=O)COc1cccc2c(CC(C)NC[C@H](O)c3cccc(Cl)c3)c[nH]c12 (stereo partly drawn) [Example 14, 2-[3-(7-methoxycarbonylmethoxyindol-3-yl)-2-propylamino]-(1R)-1-(3-chlorophenyl)ethanol] | 0.43 nM | 95% | 6 nM | 29% | – | – | stimulating activity of human β3 -adrenergic receptor (in words) [3]: potent stimulating activity of human β3 -adrenergic receptor; Ratio of EC50 β2 /β3 [3]: 14.0; adrenoceptor selectivity for human β3 -adrenergic receptor (in words) ([3]; β3 versus β2, conclusion from Table 5): excellent adrenoceptor selectivity for human β3 -adrenergic receptor |
| Cc1ccc(S(=O)(=O)NC(=O)NN2CC3CCCC3C2)cc1 (centres unmarked) [Gliclazide, reference compound] | – | – | – | – | – | – | ED25 [5, 8]: 0.87 mg/kg |
| CC(C)NC[C@H](O)c1ccc(O)c(O)c1 [IP, (-)Isoproterenol, reference compound] | – | – | – | – | – | – | I.A. value β3 -receptor ([3]; intrinsic activity: maximal cAMP response relative to 10^-5 M (-)-isoproterenol = 100%): 100% |
